These are literature values, as cited in patent US12448600B2, “Extraction of antimethanogenic compounds” (priority 2023, dated 2025).

Data set [1] concerns CH4 production.
The conditions of data set [2]: pure form.
[3] abbreviates: 20° C., cell prints mmHg under a kPa head.

SMILES strings stand for the structures. Where two headings read alike, the source gives them in different places.

On to `O=[N+]([O-])OCCCO` [3-NOP, 3-nitrooxypropanol], for which, in data set [1] (cows, twice daily dosing, 80 mg per kg dry matter intake, 3 hours post-administration), the “Reduction in CH4 production” value is on record as 29%. In data set [1] (single dose), the “Reduction in methane emissions” value was less than 30% and the “Time the reduction in methane emissions is maintained” value was 3 to 4 h.

Turning to `ClC(Cl)Br` [Bromodichloromethane], the Vapor pressure in data set [2] (20° C.) was 6.6 kPa.

For `BrC(Br)Br` [Bromoform], in data set [2] (20° C.), the Vapor pressure is 0.67 kPa.

For `ClC(Cl)Cl` [Chloroform], the Vapor pressure in data set [2] (setting [3]) is given as 212 mmHg.

In the case of `BrCBr` [Dibromomethane], in data set [2] (20° C.), the Vapor pressure was 4.7 kPa.

With `FC(F)F` [Fluoroform], in data set [2] (20° C.), the Vapor pressure was 4000 kPa.

For `IC(I)I` [Iodoform], in data set [2] (setting [3]), the Vapor pressure was 0.04 mmHg.

Take `CBr` [Methyl bromide]: in data set [2] (setting [3]), the Vapor pressure is recorded as 1893 mmHg.

As to `CF` [Methyl fluoride], in data set [2] (at 21° C.), the Vapor pressure was 3300 at 21 °C kPa.

Regarding `CI` [Methyl iodide], the Vapor pressure in data set [2] (20° C.) is on record as 50 kPa.

As to `ClC=C(Cl)Cl` [Trichlorethylene], the Vapor pressure in data set [2] (20° C.) is 7.8 kPa.
